Reference: PMC6315057, “Industrial scale high-throughput screening delivers multiple fast acting macrofilaricides” (Nature Communications, 2019)
≈ marks a conversion by molar mass, not a printed value.

Columns and labels:
THP-1 cells = experiment: Mammalian cell viability counter-screen (CellTiter-Blue); assay type: cell-based, human; conditions: Homo sapiens, 48 h, read-out: HTS IC50 mammalian toxicity
Protocol: The human monocytic THP-1 cell line (ATCC® TIB-202) used for mammalian cytotoxicity evaluation was routinely cultured in roller bottles. Growth media consisted of RPMI 1640 supplemented with 10% FBS and 2 mM L-glutamine. Cells were maintained at 37 °C with 95% humidity in 5% CO2 in a shaking incubator.
All compounds selected for secondary IC50 screen were tested in parallel for mammalian cell viability using the CellTiter-Blue® Cell Viability Assay. THP1 cells were removed from culture and plated at 1 × 10^4 cells/well (40 µl) into 384-well assay ready plates and incubated at 37 °C, 5% CO2 for 48 h at 95% humidity. After the addition of CellTiter-Blue Viability reagent (8 µl of a 1:6 dilution) the assay plates were incubated for a further 2 h before fluorescence detected using a PerkinElmer EnVision™ plate reader.

Rat hepatocyte clearance = assay type: in vitro ADME
Excerpt: (§1) The DMPK data used for triaging compounds, including LogD7.4, aqueous solubility, plasma protein binding, microsome and hepatocyte clearance measurements, were generated using the standard AstraZeneca UK high-throughput platform[37],[38].

LogD7.4 = assay type: physicochemical; conditions: pH 7.4
Excerpt: as §1

[1] = Aqueous solubility in pH 7.4 PBS; assay type: physicochemical; conditions: for solubility: PBS pH 7.4, aqueous buffer, pH 7.4 PBS, read-out: Aqueous solubility in pH7.4 PBS
Excerpt: as §1

[2] = Human plasma protein binding; assay type: in vitro ADME; conditions: plasma
Excerpt: as §1

[3] = system: Wolbachia within Brugia malayi Mf; experiment: Anti-Wolbachia time-kill analysis (timed wash-out) in B. malayi Mf; assay type: cell-based; conditions: 10x EC50, 1 day exposure, wash, 6-day read out, normalised to vehicle control
Excerpt: To compare the dynamics of the in vitro phenotype of our hits with existing anti-Wolbachia therapies, we employed a timed wash-out strategy (Fig. 5) at 10x EC50 to establish the anti-Wolbachia time-kill kinetics of the selected chemotypes (1A–5A), using five replicates per compound. […].
Fig. 5 Anti-Wolbachia time-kill analysis. Representatives from the top five clusters (1A–5A), as well as established anti-Wolbachia antibacterials (doxycycline (white), minocycline (grey), rifampicin (black)) were assessed after exposure for 1 day and 2 days before washing and further incubation until the standard 6-day read out. wsp:gst ratio was normalised to the DMSO vehicle control resulting in a read out of mean percentage reduction from control. Doxycycline day 6 treatment represents the result for exposure to doxycycline at 5 µM for a full 6 days (no wash). The box extends from the 25th to the 75th percentile with the median presented by the central line. The whiskers are set at the minimum and maximum therefore indicating the range from five replicates. The cluster number is indicated by colour: cluster 1 (dark blue), 2 (magenta), 3 (teal), 4 (dark gold), and 5 (light blue)
The Mf were obtained by peritoneal lavage, using a catheter, of gerbils (Meriones unguiculatus) harbouring a patent infection of B. malayi. Mf were purified using a PD-10 desalting column (Fisher), centrifuged (311 RCF for 5 min at room temperature) before the addition of 8000 Mf/well of a 96-well plate (100 µl per well) in complete media consisting of RPMI supplemented with 10% FBS, 1% penicillin streptomycin and 1% amphotericin B. Compounds were diluted in complete media and 100 µl was added per well, providing a final concentration of 5 µM, with five replicates per compound. Each plate contained doxycycline (5 µM) and DMSO controls. After incubation at 37 °C for 6 days in 5% CO2, visual assessment of Mf motility was performed and scored from 0 to 4 per well (where 0 = no movement and 4 = highly motile). DNA extraction per sample was performed using the QIAmp DNA Mini Kit before quantitative PCR was performed to obtain the ratio of Wolbachia Surface Protein gene copy number (wsp) to Glutathione S-Transferase gene copy number (gst)[36]. The DNA was amplified using the primers as indicated in Supplementary Table 6.
The wsp:gst ratio data allowed for normalisation of the Wolbachia level to the Mf biomass for each well. The change in wsp:gst for each compound compared to the DMSO control was calculated before normalisation to the onboard doxycycline control to allow for inter-assay comparison.

Rat hepatocytes CLint (Rat hepatocyte clearance)	logD (LogD7.4)	Solubility (in words) [1]	solubility [1]	fraction unbound [2]	Structure (SMILES)	IC50 (THP-1 cells)	Wolbachia reduction after a single day of exposure [3]
8.0 µl/min/1x106 cells	3.5	lower	12 µM (≈ 4.57 µg/mL)	0.073	Cc1nc(C(=O)NC(C)c2ccc(F)cc2)c(NC(=O)Cc2ccccc2)[nH]1 (centres unmarked) [5A, N-(1-(4-fluorophenyl)ethyl)-2-methyl-5-(2-phenylacetamido)-1H-imidazole-4-carboxamide]	> 30.6 µM	57–67%
147.0 µl/min/1x106 cells	3.3		538 µM (≈ 197 µg/mL)	0.042	CC1COCCN1c1cc(OCc2ccccc2)nc(-c2nccn2C)n1 (centres unmarked) [3A, 4-(6-(benzyloxy)-2-(1-methyl-1H-imidazol-2-yl)pyrimidin-4-yl)-3-methylmorpholine]	> 30.6 µM	42%
262.8 µl/min/1x106 cells	3.1		71 µM (≈ 25.3 µg/mL)	0.021	COc1ccc(CC(=O)Nc2[nH]nc(C)c2-c2ccccc2)c(Cl)c1 [2A, 2-(2-chloro-4-methoxyphenyl)-N-(3-methyl-4-phenyl-1H-pyrazol-5-yl)acetamide]	> 30.6 µM	57–67%
31.1 µl/min/1x106 cells	2.6		663 µM (≈ 338 µg/mL)	0.24	Cc1nccc(N2CCC(C(=O)N(C)CCN(C)S(=O)(=O)c3ccc(Br)cc3)CC2)n1 [1A, N-(2-((4-bromo-N-methylphenyl)sulfonamido)ethyl)-N-methyl-1-(2-methylpyrimidin-4-yl)piperidine-4-carboxamide]	> 30.6 µM	57–67%
> 300 µl/min/1x106 cells	3.2	excellent	> 1000 µM	0.078	CCc1ccc(CN2CCCC2c2nc(C(=O)N(C)C)cs2)s1 (centres unmarked) [4A, 2-(1-((5-ethylthiophen-2-yl)methyl)pyrrolidin-2-yl)-N,N-dimethylthiazole-4-carboxamide]	> 30.6 µM	57–67%
